Measurements reported in patent publication US7432301B2, “Use of S-nitrosothiol signaling to treat disordered control of breathing” (University of Virginia Patent Foundation, priority 2001, dated 2008).
“Also recorded” adds a separate entry of the source.

What was measured:
[1] = test system: respiratory centers of the NTS; test: Minute ventilation (VE) by whole-body plethysmography after bilateral microinjection into the NTS of freely behaving, conscious rats; type: in vivo, rat; conditions: for effect on VE: excess amount, n=3, P=NS; for increase in VE (minute ventilation): 1 nmol injected into NTS, conscious rats; for VE change from baseline: administered at NTS, dose not given (FIG. 1C); for onset/decay characteristics of the VE response: after injection into NTS, compared with hypoxia and return to normoxia (FIGS. 1A, 1B)
Source text: To test the hypothesis that SNOs stimulate respiratory centers of the NTS to increase VE, the ability of endogenous SNOs to increase VE in freely behaving, conscious rats using whole-body plethysmography was examined.
(§1) A dual cannula (22G; Plastics One) was implanted close to the nucleus of the solitary tract according to standard stereotaxic coordinates (−14.0 mm bregma, 0.5 mm off midline, 7.0 mm depth; see Paxinos, G. & Watson, C. The Rat Brain in Stereotaxic Coordinates (Academic, New York, 1986), figure 74) through a hole drilled into the occipital skull of male Sprague-Dawley rats (approximately 250 g; pentobarbital anaesthesia). Placement was confirmed histologically after protocol completion. After recovery for 48 h (return to normal feeding and sleep/waking patterns), breath-by-breath ventilation was measured using the barometric method previously described (Gozal et al., J. Appl. Physiol. 81, 2068-2077 (1996)) after simultaneous, bilateral 0.1-ul injections in the freely behaving animal.

[2] = Relative stability of deoxygenated blood-derived SNOs; type: physicochemical
Procedure: Oxygenated blood drawn in an airtight syringe with GSH and EDTA (final concentrations 400 μM) by left ventricular puncture (rat) or peripherally (human) was maintained in 21% oxygen. Venous blood was reacted identically and was transferred to a hypoxia chamber under argon. Oxygen tension was measured electrochemically (Chirion). Samples underwent centrifugation (3,000 g for 5 min) followed by ultrafiltration (10K; Millipore), separation and selective ultraviolet photolysis (Jelight PS-3000-30; Laguna-Hills).
(§2) SNOs were prepared by acid nitrosation, titrated to pH 7.4 and maintained in EDTA in the dark at −80° C. until use to prevent decomposition. SNOs were detected by reduction/chemiluminescence as previously described (Fang et al., Biochem. Biophys. Res. Commun. 252, 535-540 (1998)). Briefly, samples were injected into 100 μM CuCl, 1 mM cysteine (pH 6; 50 8C) and purged with helium (grade 5; BOC Gases). Evolved NO was measured by chemiluminescence.

[3] = target: T1, γ-glutamyl transpeptidase (GGT) (Rattus norvegicus, UniProt P07314); test: Effect of GGT inhibition (acivicin pre-treatment of NTS) on ventilatory effects of SNOs and on ventilatory offset; type: in vivo; conditions: for SNO-stimulated VE increase after GGT inhibition: SNO 10 nmol microinjection after pre-treatment with acivicin 7.5 nmol (FIG. 2A)
T1 construct: from tissue; host or cells: nucleus tractus solitarius (brainstem) of living male Sprague-Dawley rats
Source text: CGSNO (10 nmol) stimulated VE increases that were not modified by acivicin (P=NS; n=6). FIG. 2B represents the data generated from a hypoxic ventilatory response in GGT-deficient mice (+/+, wild type; +/−, heterozygotes; −/−, GGT-deficient). Lowest VE during the 30 s after cessation of hypoxia is expressed as percent change from pre-hypoxia baseline (P<0.0001; n=8 each group).
Endothelial transport and targeted neuronal biological activity of GSNO may depend, under certain circumstances, on biochemical modifications such as cleavage by GGT to form CGSNO. […] Moreover, normal ventilatory offset (that is, the gradual return to baseline of VE after recovery from hypoxia that prevents apnea) was inhibited by acivicin. […] This distinction may have pharmacological implications.
as §1

[4] = Decay of CSNO isomers in rat brainstem homogenates; type: in vitro ADME
Procedure: To test the hypothesis that SNOs stimulate respiratory centers of the NTS to increase VE, the ability of endogenous SNOs to increase VE in freely behaving, conscious rats using whole-body plethysmography was examined. […] The L- and D-isomers of CSNO decayed at identical rates in rat brainstem homogenates (26% min-1 mg -1 protein each; P=not significant (NS)).
as §2

[5] = test system: blood pressure or heart rate; test: Hemodynamic effects (blood pressure, heart rate) of SNOs; type: in vivo; conditions: same species

T1 sequence (P07314 whole entry): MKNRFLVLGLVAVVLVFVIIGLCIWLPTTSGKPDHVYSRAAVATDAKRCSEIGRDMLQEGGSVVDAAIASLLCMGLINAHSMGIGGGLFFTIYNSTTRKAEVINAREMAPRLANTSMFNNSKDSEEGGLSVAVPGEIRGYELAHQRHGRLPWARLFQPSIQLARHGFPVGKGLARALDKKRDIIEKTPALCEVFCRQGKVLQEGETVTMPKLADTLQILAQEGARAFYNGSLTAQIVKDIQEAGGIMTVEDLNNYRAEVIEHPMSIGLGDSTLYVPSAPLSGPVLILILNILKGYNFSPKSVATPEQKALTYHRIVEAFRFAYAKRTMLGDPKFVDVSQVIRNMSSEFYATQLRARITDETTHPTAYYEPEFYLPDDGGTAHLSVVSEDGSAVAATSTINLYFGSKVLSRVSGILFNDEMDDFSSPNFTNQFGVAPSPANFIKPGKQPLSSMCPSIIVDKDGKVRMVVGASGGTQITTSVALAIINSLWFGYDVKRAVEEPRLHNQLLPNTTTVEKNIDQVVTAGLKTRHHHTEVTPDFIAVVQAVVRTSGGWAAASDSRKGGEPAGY

N[C@@H](CCC(=O)N[C@@H](CS)C(=O)NCC(=O)O)C(=O)O [glutathione]
effect on VE [1]: neither excess 8-bromocyclic GMP nor glutathione had any effect

Nc1nc2c(nc(Br)n2[C@@H]2O[C@@H]3COP(=O)(O)O[C@H]3[C@H]2O)c(=O)[nH]1 [8-bromocyclic GMP, reference compound]
effect on VE [1]: neither excess 8-bromocyclic GMP nor glutathione had any effect

N[C@@H](CSN=O)C(=O)NCC(=O)O [CGSNO, S-Nitrosocysteinyl glycine]
stability relative to GSNO [2]: less stable than GSNO
SNO-stimulated VE increase after GGT inhibition [3]: not modified; also recorded: increases minute ventilation; also recorded: overcame this inhibition
increase in VE (minute ventilation) [1]: marked increase; also recorded: equivalent increases
VE change from baseline [1]: increases in VE
onset/decay characteristics of the VE response [1]: identical to those observed during short exposure of the whole animal to hypoxia and return to normoxia

N[C@@H](CSN=O)C(=O)O [L-CSNO, S-nitroso-L-cysteine]
increase in VE (minute ventilation) [1]: equivalent increases
VE change from baseline [1]: increases in VE
decay rate [4]: 26 % min-1 mg -1 protein

N[C@H](C(=O)O)[C@@H]1CC(Cl)=NO1 [acivicin, reference compound]
effect on GSNO-mediated increases in VE ([3]; NTS pre-treatment with the inhibitor): attenuated
effect on normal ventilatory offset (gradual return of VE to baseline after hypoxia) ([3]; recovery from hypoxia): inhibited

N[C@@H](CCC(=O)N[C@@H](CSN=O)C(=O)NCC(=O)O)C(=O)O [GSNO, S-nitrosoglutathione]
effects on blood pressure or heart rate (hemodynamic effects) [5]: no effects; also recorded: not reproduced
SNO-stimulated VE increase after GGT inhibition [3]: abolished
increase in VE (minute ventilation) [1]: equivalent increases
VE change from baseline [1]: increases in VE; also recorded: dramatically increase
onset/decay characteristics of the VE response [1]: identical to those for recovery from hypoxia

N[C@H](CSN=O)C(=O)O [D-CSNO, S-nitroso-D-cysteine, reference compound]
increase in VE (minute ventilation) [1]: no effect
VE change from baseline [1]: without effect
decay rate [4]: 26 % min-1 mg -1 protein
